Reference: patent publication US8278482B2, “Antimicrobial N-chlorinated compositions” (priority 2008, dated 2012)
Where two headings read alike, the source gives them in different places.

Legend:
Type in all cases: cell-based
[1] = system: Escherichia coli (ATCC 25922); experiment: Antimicrobial activity (MBC), E. coli ATCC 25922
Method: (§1) To determine antimicrobial activity, Escherichia coli (ATCC 25922), Staphylococcus aureus (ATCC 29213), Pseudomonas aeruginosa (ATCC 27853), and Candida albicans (ATCC 10231) were used in primary screening. In addition, Escherichia coli (MCC 80392), Staphylococcus aureus (MCC 91731), Pseudomonas aeruginosa (MCC 4438), and Candida albicans (MCC 50319), provided by Alcon Laboratories, Fort Worth, Tex., were used. The microbial cultures were diluted in sterile saline pH 4 to prepare inocula. Test compounds were titrated by stepwise two-fold dilutions in sterile saline pH 4. A total of 1.0×10^5 to 1.0×10^6 Colony Forming Units (CFU)/mL microbe was added to each tube, mixed by gentle vortexing, and then incubated at room temperature for 1 h. Microbial plating on Petri dishes (Tryptic Soy agar or Saboraud's Dextrose agar) was performed immediately after the designated exposure after neutralization of the test article dilutions in Dey-Engley Broth. Plates were incubated at 37° C., and the numbers of microbes were counted by direct colony count to quantitate the surviving microbes as CFU/mL. Positive growth controls were made with sterile 0.9% saline. Compounds were dissolved in unbuffered isotonic saline (SAL) or phosphate buffered saline (PBS) at pH 4 or pH 7 (using HCl and/or NaOH as needed). All compounds were tested three times. The results are tabulated to show the comparison of antimicrobial effectiveness range of the compounds.
(§2) Data shown are the Minimum Bactericidal Concentration (MBC) or Minimum Fungicidal Concentration (MFC) (≧99.9% kill) in μg/mL.

[2] = system: Staphylococcus aureus (ATCC 29213); experiment: Antimicrobial activity (MBC), S. aureus ATCC 29213
Method: as §1, §2

[3] = system: Candida albicans (ATCC 10231); experiment: Antimicrobial activity (MFC), C. albicans ATCC 10231; settings: ATCC10231, C. albicans ATCC 10231, pH 4 (Sal), 1 h exposure at room temperature, read-out: Minimum Fungicidal Concentration (MFC) (≧99.9% kill)
Method: as §1, §2

[4] = system: mouse fibroblast cells (ATCC CCL-1, L929); experiment: Cytotoxicity, WST-8 colorimetric assay; settings: 60 min exposure
Method: Cytotoxicity was assessed by a colorimetric assay system using the Dojindo™ cell counting kit containing 2-(2-methoxy-4-nitrophenyl)-3-(4-nitrophenyl)-5-(2,4-disulfophenyl)-2H-tetrazolium, monosodium salt (WST-8). In this assay, the WST-8 reagent was bioreduced by cellular dehydrogenases to a formazan product that is highly soluble in tissue culture medium.
In a standard assay, mouse fibroblast cells (ATCC CCL-1, L929), were cultured in Minimum Essential Medium, α-medium supplemented with 10% heat inactivated fetal bovine serum, L-glutamine, penicillin and streptomycin. Cells were trypsinized and counted under the microscope and seeded at 1.5×10^4 total cells per 100 μL per well of a flat-bottom 96-well plate in order to achieve ˜80% confluence after overnight incubation at 37° C. On the day of the assay, the tissue culture medium was removed and replaced with 30 μL of fresh medium.
Test articles were prepared as 2-fold serial dilutions and 170 μL of each dilution is added into each of 4-wells (total volume per well=200 μL). The test plate was then returned to the 37° C. incubator for 60 min. Immediately after the exposed time, test article from each well was replaced with 200 μL of fresh media. Plates were incubated at 37° C. for 18-20 hours. The following day growth medium was replaced with 100 μL/well of fresh medium containing 10 μL WST-8 reagent. Cells were incubated under growth conditions (5% CO2 at 37° C. humidified incubator), protected from light, until color development was achieved (usually 1-4 hours). Absorbance was read at 450 nm with reference wavelength at 750 nm using Molecular Device SpectraMax M5 plate reader. Untreated or vehicle only treated cells receiving WST-8 reagent served as positive cell proliferation controls.
The absorbance A450/750 from each well of untreated cells and from each well within the dilution series was measured. […] Next, a non-linear regression (curve fit) analysis was performed on all the absorbance data measured from the dilution series, including the absorbance data obtained from wells of the untreated control cells. For each dilution within the dilution series, an average A450/750 was calculated from the four replicate wells.

[5] = ATCC25922, E. coli ATCC 25922, pH 4 (Sal), 1 h exposure at room temperature, read-out: Minimum Bactericidal Concentration (MBC) (≧99.9% kill)
[6] = ATCC29213, S. aureus ATCC 29213, pH 4 (Sal), 1 h exposure at room temperature, read-out: Minimum Bactericidal Concentration (MBC) (≧99.9% kill)
[7] = ATCC25922, E. coli ATCC 25922, pH 7 (PBS), 1 h exposure at room temperature, read-out: Minimum Bactericidal Concentration (MBC) (≧99.9% kill)

## C[S+](C)CC(C)(C)N(Cl)Cl.[Cl-] [Compound 21-86, (2-(Dichloroamino)-2-methylpropyl)dimethylsulfonium chloride]
[1]; [5]
  MBC: 8 µg/mL
[2]; [6]
  MBC: 4 µg/mL
[3]
  MFC: 128 µg/mL
[4]; pH 7 (PBS)
  CT50 (concentration that results in survival of 50% of the cells): 0.6 mM

## CC(C)(CC[N+](C)(C)CC(F)(F)F)N(Cl)Cl.[Cl-] [Compound 21-132, 3-(Dichloroamino)-N,N,3-trimethyl-N-(2,2,2-trifluoroethyl)butan-1-ammonium chloride]
[1]; [5]
  MBC: 4 µg/mL
[2]; [6]
  MBC: 2 µg/mL
[3]
  MFC: 32 µg/mL

## CC1(C)CC[N+](C)(CCC(C)(C)N(Cl)Cl)CC1.[Cl-] [Compound 21-122, 1-(3-(Dichloroamino)-3-methylbutyl)-1,4,4-trimethylpiperidinium chloride]
[1]; [5]
  MBC: 16 µg/mL
[2]; [6]
  MBC: 4 µg/mL
[4]; pH 4 (Acetate)
  CT50 (concentration that results in survival of 50% of the cells): 1.0 mM

## CC[N+](C)(C)CCC(C)(C)N(Cl)Cl.[Cl-] [Compound 21-134, 3-(Dichloroamino)-N-ethyl-N,N,3-trimethylbutan-1-ammonium chloride]
[4]; pH 4 (Acetate)
  CT50 (concentration that results in survival of 50% of the cells): 1.4 mM

## CC(C)(CC[N+]1(C)CCCCCC1)N(Cl)Cl.[Cl-] [Compound 21-118, 1-(3-(Dichloroamino)-3-methylbutyl)-1-methylazepanium chloride]
[1]; [5]
  MBC: 4 µg/mL
[2]; [6]
  MBC: 4 µg/mL
[3]
  MFC: 16 µg/mL
[4]; pH 4 (Sal)
  CT50 (concentration that results in survival of 50% of the cells): 0.9 mM

## CC(C)(CC[N+](C)(C)CCC[N+](C)(C)C)N(Cl)Cl.[Cl-].[Cl-] [Compound 21-128, N^1-(3-(Dichloroamino)-3-methylbutyl)-N^1,N^1,N^3,N^3,N^3-pentamethylpropane-1,3-diammonmium chloride]
[1]; [5]
  MBC: 16 µg/mL
[2]; [6]
  MBC: 4 µg/mL
[3]
  MFC: 128 µg/mL
[4]; pH 4 (Acetate)
  CT50 (concentration that results in survival of 50% of the cells): 1.3 mM

## CC(C)(CC[N+]12CCC(CC1)CC2)N(Cl)Cl [Compound 21-120, 1-(3-(Dichloroamino)-3-methylbutyl)-1-azoniabicyclo[2.2.2]octane methanesulfonate]
[1]; [5]
  MBC: 8 µg/mL
[2]; [6]
  MBC: 2 µg/mL
[3]
  MFC: 32 µg/mL
[4]; pH 4 (Acetate)
  CT50 (concentration that results in survival of 50% of the cells): 1.3 mM

## CCCCCCCCCCCC[N+](C)(C)CCC(C)(C)N(Cl)Cl [Compound 21-138, N-(3-(Dichloroamino)-3-methylbutyl)-N,N-dimethyldodecan-1-ammonium chloride]
[4]; pH 4 (Acetate)
  CT50 (concentration that results in survival of 50% of the cells): 0.5 mM

## CC(C)(CCS(=O)(=O)CCC[N+](C)(C)C)N(Cl)Cl.[Cl-] [Compound 21-112, S-3-(3-(Dichloroamino)-3-methylbutylsulfonyl)-N,N,N-trimethylpropan-1-ammonium chloride]
[1]; [5]
  MBC: 8 µg/mL
[2]; [6]
  MBC: 2 µg/mL
[3]
  MFC: 32 µg/mL
[4]; pH 4 (Sal)
  CT50 (concentration that results in survival of 50% of the cells): 1.4 mM

## CC(C)(CC[N+](C)(C)C1CCCCC1)N(Cl)Cl.[Cl-] [Compound 21-126, N-(3-(Dichloroamino)-3-methylbutyl)-N,N-dimethylcyclohexanammonium chloride]
[1]; [5]
  MBC: 16 µg/mL
[2]; [6]
  MBC: 4 µg/mL
[3]
  MFC: > 1020 µg/mL
[4]; pH 4 (Acetate)
  CT50 (concentration that results in survival of 50% of the cells): 0.6 mM

## CCCC[N+](C)(C)CCC(C)(C)N(Cl)Cl.[Cl-] [Compound 21-124, N-Butyl-3-(dichloroamino)-N,N,3-trimethylbutan-1-ammonium chloride]
[1]; [5]
  MBC: 8 µg/mL
[2]; [6]
  MBC: 2 µg/mL
[3]
  MFC: 64 µg/mL
[4]; pH 4 (Acetate)
  CT50 (concentration that results in survival of 50% of the cells): 1.0 mM

## CC(C)(CCS(=O)(=O)CC[N+](C)(C)C)N(Cl)Cl.[Cl-] [Compound 21-02, 2-(3-(Dichloroamino)-3-methylbutylsulfonyl)-N,N,N-trimethylethanammonium chloride]
[1]; [5]
  MBC: 8 µg/mL
[2]; [6]
  MBC: 2 µg/mL
[3]
  MFC: 32 µg/mL
[4]; pH 4 (Sal)
  CT50 (concentration that results in survival of 50% of the cells): <0.03 mM

## CC(=O)N1CC[N+](C)(CC(C)(C)N(Cl)Cl)CC1.[Cl-] [Compound 21-110, 4-Acetyl-1-(2-(dichloroamino)-2-methylpropyl)-1-methylpiperazin-1-ium chloride]
[1]; [5]
  MBC: 64 µg/mL
[2]; [6]
  MBC: 16 µg/mL
[3]
  MFC: > 1020 µg/mL
[4]; pH 4 (Sal)
  CT50 (concentration that results in survival of 50% of the cells): 0.9 mM

## CN(CC[N+](C)(C)C)C(=O)CC(C)(C)N(Cl)Cl.[Cl-] [Compound 21-14, 2-(3-(Dichloroamino)-N,3-dimethylbutanamido)-N,N,N-trimethylethanaminium chloride]
[1]; [5]
  MBC: 16 µg/mL
[1]; [7]
  MBC: 256 µg/mL
[2]; [6]
  MBC: 2 µg/mL
[3]
  MFC: 32 µg/mL

## CCCC[N+](C)(CCCC)CCC(C)(C)N(Cl)Cl [Compound 21-48, N,N-Dibutyl-3-(dichloroamino)-N-3-dimethylbutan-1-aminium chloride]
[1]; ATCC25922, 1 h, pH 4, read-out: Minimum Bactericidal Concentration (MBC) (≧99.9% kill)
  MBC: 16 µg/mL
[2]; ATCC29213, 1 h, pH 4, read-out: Minimum Bactericidal Concentration (MBC) (≧99.9% kill)
  MBC: 4 µg/mL

## CC(C)(CCC[P+](C)(C)C)N(Cl)Cl.[Cl-] [Compound 21-106, (4-(Dichloroamino)-4-methylpentyl)trimethylphosphonium chloride]
[1]; [5]
  MBC: 4 µg/mL
[2]; [6]
  MBC: 2 µg/mL
[3]
  MFC: > 256 µg/mL

## CC(C)(CC(=O)OCC[N+]1(C)CCCCC1)N(Cl)Cl.[Cl-] [Compound 21-93, 1-(2-(3-(Dichloroamino)-3-methylbutanoyloxy)ethyl)-1-methylpiperidinium chloride]
[1]; [5]
  MBC: 4 µg/mL
[1]; [7]
  MBC: 512 µg/mL
[2]; [6]
  MBC: 2 µg/mL

## CC(C)(CC[N+]1(C)CCCC1)N(Cl)Cl.[Cl-] [Compound 21-130, 1-(3-(Dichloroamino)-3-methylbutyl)-1-methylpyrrolidinium chloride]
[1]; [5]
  MBC: 4 µg/mL
[2]; [6]
  MBC: 2 µg/mL
[3]
  MFC: 32 µg/mL

## CC(C)(C[N+](C)(C)CCS(=O)(=O)O)N(Cl)Cl.[Cl-] [Compound 21-90, 2-(Dichloroamino)-N,N-2-trimethyl-N-(2-sulfoethyl)propan-1-ammonium chloride]
[1]; [5]
  MBC: 64 µg/mL
[2]; [6]
  MBC: 16 µg/mL
[3]
  MFC: 128 µg/mL

## CC(C)(CCC[N+](C)(C)C)N(Cl)Cl.[Cl-] [Compound 21-108]
[1]; [5]
  MBC: 8 µg/mL
[2]; [6]
  MBC: 2 µg/mL
[3]
  MFC: 256 µg/mL

## CC(C)(c1cn(CC[N+](C)(C)C)nn1)N(Cl)Cl.[Cl-] [Compound 21-92, 2-(4-(2-(Dichloroamino)propan-2-yl)-1H-1,2,3-triazol-1-yl)-N,N,N-trimethylethanaminium chloride]
[1]; [5]
  MBC: 8 µg/mL
[2]; [6]
  MBC: 4 µg/mL
[3]
  MFC: 32 µg/mL

## CC(C)(CC[N+]1(C)CCC(F)(F)CC1)N(Cl)Cl.[Cl-] [Compound 21-116, 1-(3-(Dichloroamino)-3-methylbutyl)-4,4-difluoro-1-methylpiperidinium chloride]
[1]; [5]
  MBC: 4 µg/mL
[2]; [6]
  MBC: 2 µg/mL
[3]
  MFC: 32 µg/mL
[4]; pH 4 (Sal)
  CT50 (concentration that results in survival of 50% of the cells): 3.0 mM

## CC(C)(C[N+]1(C)CCCCC1)N(Cl)Cl.[Cl-] [Compound 21-78, 1-(2-(dichloroamino)-2-methylpropyl)-1-methylpiperidinium chloride]
[1]; [5]
  MBC: 16 µg/mL
[2]; [6]
  MBC: 8 µg/mL
[3]
  MFC: 64 µg/mL
